Reference: ChEMBL document CHEMBL5579901, “Discovery of Novel [1,2,4]Triazolo[1,5-a]pyrimidine Derivatives as Novel Potent S-Phase Kinase-Associated Protein 2 (SKP2) Inhibitors for the Treatment of Cancer” (J Med Chem, 2024)
The source made the active and inactive calls. No cut-off for these calls is given here.

Legend:
[1] = target: S-phase kinase-associated protein 2 (Homo sapiens) (UniProt Q13309); experiment: Binding affinity to SKP2 in human MGC-803 cells assessed as increase in thermal stability at 57 to 68 degreeC incubated for 4 hrs by CETSA; assay type: cell-based
Sequence of S-phase kinase-associated protein 2 (Homo sapiens) (Q13309 whole entry): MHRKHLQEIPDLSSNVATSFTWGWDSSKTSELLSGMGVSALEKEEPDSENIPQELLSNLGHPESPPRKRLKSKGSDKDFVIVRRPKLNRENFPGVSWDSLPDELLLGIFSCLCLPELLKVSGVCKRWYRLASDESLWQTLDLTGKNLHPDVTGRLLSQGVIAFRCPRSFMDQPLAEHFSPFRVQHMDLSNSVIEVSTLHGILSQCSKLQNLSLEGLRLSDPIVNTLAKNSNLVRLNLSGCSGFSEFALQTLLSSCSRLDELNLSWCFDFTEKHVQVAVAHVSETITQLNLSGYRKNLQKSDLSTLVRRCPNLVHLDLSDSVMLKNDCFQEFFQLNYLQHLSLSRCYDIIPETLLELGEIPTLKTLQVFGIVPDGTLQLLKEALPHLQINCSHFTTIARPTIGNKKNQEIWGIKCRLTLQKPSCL

MGC-803 [2] = experiment: Inhibition of cell proliferation in human MGC-803 cells at 2 to 50 uM by MTT assay; assay type: functional, cell-based; details: dose 2-50 µM, time 24-72 hrs, TDE = time-dependent effect
PC-3 [3] = experiment: Inhibition of cell proliferation in human PC-3 cells at 2 to 50 uM by MTT assay; assay type: functional, cell-based; details: dose 2-50 µM, time 24-72 hrs, TDE = time-dependent effect
MGC-803 [4] = experiment: Inhibition of cell proliferation in human MGC-803 cells incubated for 72 hrs by MTT assay; assay type: functional, cell-based; details: MGC-803, 72 h
PC-3 [5] = experiment: Inhibition of cell proliferation in human PC-3 cells incubated for 72 hrs by MTT assay; assay type: functional, cell-based; details: PC-3, 72 h
MGC-803 [6] = experiment: Inhibition of colony formation in human MGC-803 cells incubated for 10 days by crystal violet staining based inverted microscopic analysis; assay type: functional, cell-based; details: dose 1-3 µM, time 10.0 day
PC-3 [7] = experiment: Inhibition of colony formation in human PC-3 cells incubated for 10 days by crystal violet staining based inverted microscopic analysis; assay type: functional, cell-based; details: dose 1-3 µM, time 10.0 day
MGC-803 [8] = experiment: Inhibition of colony formation in human MGC-803 cells at 3 uM incubated for 10 days by crystal violet staining based inverted microscopic analysis; assay type: functional, cell-based; details: time 10.0 day
PC-3 [9] = experiment: Inhibition of colony formation in human PC-3 cells at 3 uM incubated for 10 days by crystal violet staining based inverted microscopic analysis; assay type: functional, cell-based; details: time 10.0 day
MGC-803 [10] = experiment: Inhibition of DNA synthesis in human MGC-803 cells incubated for 24 hrs by EdU staining based fluorescence microscopic analysis; assay type: functional, cell-based; details: dose 2.5-7.5 µM
MGC-803 [11] = experiment: Inhibition of cell invasion in human MGC-803 cells incubated for 48 hrs by […]; assay type: functional, cell-based; details: dose 2.5-7.5 µM
MGC-803 [12] = experiment: Inhibition of cell migration in human MGC-803 cells incubated for 48 hrs by wound healing assay; assay type: functional, cell-based; details: dose 2.5-7.5 µM
PC-3 [13] = experiment: Induction of cell cycle arrest in human PC-3 cells assessed as cells at G0/G1 phase at 5 uM incubated for 36 hrs by PI staining based flow cytometry (reference value: 54.5%); assay type: functional
PC-3 [14] = experiment: Induction of cell cycle arrest in human PC-3 cells assessed as cells at S phase at 5 uM incubated for 36 hrs by PI staining based flow cytometry (reference value: 22.8%); assay type: functional
PC-3 [15] = experiment: Induction of cell cycle arrest in human PC-3 cells assessed as cells at G2/M phase at 5 uM incubated for 36 hrs by PI staining based flow cytometry (reference value: 21.3%); assay type: functional
PC-3 [16] = experiment: Induction of cell cycle arrest in human PC-3 cells assessed as cells at S phase at 7.5 uM incubated for 36 hrs by PI staining based flow cytometry (reference value: 22.8%); assay type: functional
PC-3 [17] = experiment: Induction of cell cycle arrest in human PC-3 cells assessed as cells at G2/M phase at 7.5 uM incubated for 36 hrs by PI staining based flow cytometry (reference value: 21.3%); assay type: functional
PC-3 [18] = experiment: Induction of cell cycle arrest in human PC-3 cells assessed as cells at S phase at 15 uM incubated for 36 hrs by PI staining based flow cytometry (reference value: 22.8%); assay type: functional
PC-3 [19] = experiment: Induction of cell cycle arrest in human PC-3 cells assessed as cells at G2/M phase at 15 uM incubated for 36 hrs by PI staining based flow cytometry (reference value: 21.3%); assay type: functional
MGC-803 [20] = experiment: Induction of cell cycle arrest in human MGC-803 cells assessed as cells at S phase at 5 uM incubated for 36 hrs by PI staining based flow cytometry (reference value: 18.2%); assay type: functional
MGC-803 [21] = experiment: Induction of cell cycle arrest in human MGC-803 cells assessed as cells at S phase at 7.5 uM incubated for 36 hrs by PI staining based flow cytometry (reference value: 18.2%); assay type: functional
MGC-803 [22] = experiment: Induction of cell cycle arrest in human MGC-803 cells assessed as cells at G2/M phase at 7.5 uM incubated for 36 hrs by PI staining based flow cytometry (reference value: 20.6%); assay type: functional
PC-3 [23] = experiment: Induction of cell cycle arrest in human PC-3 cells assessed as cells at G2/M phase at 15 uM incubated for 6 hrs by PI staining based flow cytometry (reference value: 21.4%); assay type: functional
PC-3 [24] = experiment: Induction of cell cycle arrest in human PC-3 cells assessed as cells at S phase at 15 uM incubated for 12 hrs by PI staining based flow cytometry (reference value: 22.9%); assay type: functional
PC-3 [25] = experiment: Induction of cell cycle arrest in human PC-3 cells assessed as cells at S phase at 15 uM incubated for 48 hrs by PI staining based flow cytometry (reference value: 22.9%); assay type: functional
MGC-803 [26] = experiment: Induction of cell cycle arrest in human MGC-803 cells assessed as cells at S phase at 15 uM incubated for 12 hrs by PI staining based flow cytometry (reference value: 19.6%); assay type: functional
MGC-803 [27] = experiment: Induction of cell cycle arrest in human MGC-803 cells assessed as cells at S phase at 15 uM incubated for 24 hrs by PI staining based flow cytometry (reference value: 19.6%); assay type: functional
MGC-803 [28] = experiment: Induction of cell cycle arrest in human MGC-803 cells assessed as cells at G0/G1 phase at 15 uM incubated for 48 hrs by PI staining based flow cytometry (reference value: 57.9%); assay type: functional
PC-3 [29] = experiment: Upregulation of p27 protein expression in human PC-3 cells at 5 to 15 uM incubated for 48 hrs by Western blotting analysis; assay type: functional, cell-based; details: dose 5-15 µM
PC-3 [30] = experiment: Upregulation of p21 protein expression in human PC-3 cells at 15 uM by Western blotting analysis; assay type: functional, cell-based; details: time 6-48 hrs, TDE = time-dependent effect
PC-3 [31] = experiment: Upregulation of p27 protein expression in human PC-3 cells at 15 uM by Western blotting analysis; assay type: functional, cell-based; details: time 6-48 hrs, TDE = time-dependent effect
MGC-803 [32] = experiment: Antitumor activity against human MGC-803 cells xenografted in IG dosed NOD-SCID mouse assessed as inhibition of tumor proliferation administered for 21 days; assay type: functional, organism-based; details: dose 25-50 mg/kg, time 21.0 day
[33] = Toxicity against NOD-SCID mouse assessed as body weight loss at 25 to 50 mg/kg, IG administered for 21 days; assay type: organism-based; details: in vivo, po, 504 h, dose 25-50 mg/kg, time 21 day
[34] = Toxicity against NOD-SCID mouse assessed as change in heart morphology at 25 to 50 mg/kg, IG administered for 21 days by H and E staining based assay; assay type: organism-based; details: in vivo, po, 504 h, dose 25-50 mg/kg, time 21 day
[35] = Toxicity against NOD-SCID mouse assessed as change in kidney morphology at 25 to 50 mg/kg, IG administered for 21 days by H and E staining based assay; assay type: organism-based; details: in vivo, po, 504 h, dose 25-50 mg/kg, time 21 day
[36] = Half-life in Sprague-Dawley rat at 1 mg/kg, iv measured upto 24 hrs by LC/MS-MS analysis; assay type: ADME, organism-based; details: in vivo
[37] = AUClast in Sprague-Dawley rat at 1 mg/kg, iv measured upto 24 hrs by LC/MS-MS analysis; assay type: ADME, organism-based; details: in vivo
[38] = MRT(infinity) in Sprague-Dawley rat at 1 mg/kg, iv measured upto 24 hrs by LC/MS-MS analysis; assay type: ADME, organism-based; details: in vivo
[39] = AUClast in Sprague-Dawley rat at 50 mg/kg, po measured upto 24 hrs by LC/MS-MS analysis; assay type: ADME, organism-based; details: in vivo

**Q.** For `COc1ccc(-c2cc(C)nc3nc(SCc4ccc(Br)cc4)nn23)c(OC)c1`, which Activity [1] is on record?
**A.** Active

**Q.** And the inhibition (MGC-803 [2])?
**A.** Tde

**Q.** What about the inhibition (PC-3 [3]) of the same compound?
**A.** Tde

**Q.** What about the IC50 (MGC-803 [4]) of the same compound?
**A.** 10.8 µM

**Q.** What about the IC50 (PC-3 [5]) of the same compound?
**A.** 11.7 µM

**Q.** And the inhibition (MGC-803 [6])?
**A.** Dose-Dependent Effect

**Q.** What about the inhibition (PC-3 [7]) of the same compound?
**A.** Dose-Dependent Effect

**Q.** And the inhibition (MGC-803 [8])?
**A.** Active

**Q.** What about the inhibition (PC-3 [9]) of the same compound?
**A.** Active

**Q.** What about the inhibition (MGC-803 [10]) of the same compound?
**A.** Dose-Dependent Effect

**Q.** And the inhibition (MGC-803 [11])?
**A.** Dose-Dependent Effect

**Q.** And the inhibition (MGC-803 [12])?
**A.** Dose-Dependent Effect

**Q.** What about the Activity (PC-3 [13]) of the same compound?
**A.** 46.9%

**Q.** What about the Activity (PC-3 [14]) of the same compound?
**A.** 28.1%

**Q.** What about the Activity (PC-3 [15]) of the same compound?
**A.** 19.9%

**Q.** What about the Activity (PC-3 [16]) of the same compound?
**A.** 37.2%

**Q.** And the Activity (PC-3 [17])?
**A.** 21.9%

**Q.** And the Activity (PC-3 [18])?
**A.** 44.3%

**Q.** And the Activity (PC-3 [19])?
**A.** 16.3%

**Q.** What about the Activity (MGC-803 [20]) of the same compound?
**A.** 26.9%

**Q.** What about the Activity (MGC-803 [21]) of the same compound?
**A.** 35.8%

**Q.** What about the Activity (MGC-803 [22]) of the same compound?
**A.** 18.7%

**Q.** And the Activity (PC-3 [23])?
**A.** 20.3%

**Q.** What about the Activity (PC-3 [24]) of the same compound?
**A.** 32.6%

**Q.** What about the Activity (PC-3 [25]) of the same compound?
**A.** 39.8%

**Q.** And the Activity (MGC-803 [26])?
**A.** 31.2%

**Q.** And the Activity (MGC-803 [27])?
**A.** 38.9%

**Q.** And the Activity (MGC-803 [28])?
**A.** 40.9%

**Q.** What about the Activity (PC-3 [29]) of the same compound?
**A.** Active

**Q.** What about the Activity (PC-3 [30]) of the same compound?
**A.** Tde

**Q.** What about the Activity (PC-3 [31]) of the same compound?
**A.** Tde

**Q.** And the Activity (MGC-803 [32])?
**A.** Dose-Dependent Effect

**Q.** And the Activity [33]?
**A.** Non-Toxic

**Q.** What about the Activity [34] of the same compound?
**A.** Non-Toxic

**Q.** And the Activity [35]?
**A.** Non-Toxic

**Q.** And the t1/2 [36]?
**A.** 1.49 h

**Q.** What about the AUC(0-t) at 24 h [37] of the same compound?
**A.** 699 ng·h/mL

**Q.** And the MRT [38]?
**A.** 6.28 h

**Q.** And the AUC(0-t) at 24 h [39]?
**A.** 906 ng·h/mL
